We go through two compounds from patent US20130253022A1 (FOX CHASE CHEMICAL DIVERSITY CENTER, INC., priority 2010, published 2013).

One assay has as its system hippocampal neurons. Nature of the assay: Prevention of reactive oxygen species accumulation from hydrogen peroxide (CDFFDA dye). The class given is cell-based. As to conditions: Rattus norvegicus, Hippocampal neuron; hydrogen peroxide for three hours, day 18 hippocampal cultures; read-out: Potency of Reduction in Oxidized CDFFDA (ROS) EC50. An excerpt: Cell cultures: all compounds were screened with dissociated hippocampal cultures derived from embryonic day 18 rats as the primary test system. With this preparation, primary neurons were used to test for prevention of reactive oxygen species accumulation in response to hydrogen peroxide. In brief, hippocampal tissue was obtained commercially through Brain Bits (Springfield, Ill.) and cultures prepared as previously described (Brewer, G. J. Serum-free B27/neurobasal medium supports differentiated growth of neurons from the striatum, substantia nigra, septum, cerebral cortex, cerebellum and dentate gyms. J. Neurosci. Res. 1995, 42, 674-683). […]
Hydrogen peroxide and glutamate generate reactive oxygen species (ROS) such as superoxide anions, hydrogen peroxide and hydroxyl radicals which can reactively damage cellular components including DNA, lipids and proteins (Anderson et al. (2001). Green tea catechins partially protect DNA from OH radical-induced strand breaks and base damage through fast chemical repair of DNA radicals. Carcinogenesis 2001, 22:1189-1193). […] The cultures were then treated with 30 nM hydrogen peroxide for three hours and the fluorescence measured at Ex/Em 485/508. Background fluorescence was subtracted from values obtained from wells without cells.

Assay [1] relates to MES-induced seizure spread. Nature of the assay: Maximal electroshock seizure (MES) test, mouse. It is filed as in vivo, mice. To be noted: for Duration of action MES: Mouse Maximal Electroshock (MES) test at 100 mg/kg, i.p.; for ED50: ip, mouse. Here is the method:
Seizure-related assays, Maximal electroshock test: The most definitive assay for anti-seizure activity is the maximal electroshock (MES) test (Swinyard, E. A. Laboratory evaluation of antiepileptic drugs: review of laboratory methods, Epilepsia, 1969, 10, 107-119). […] With both rodent assays, the duration of action is of high importance as well as the potency of the response.
Methods to measure anticonvulsant activity: All tests were conducted by the Anticonvulsant Screening Program (ASP) of the National Institute of Neurological Disease and Stroke at the National Institutes of Health.
The Maximal Electroshock Seizure (MES) or Maximal Seizure Pattern Test: The MES is a model for generalized tonic-clonic seizures (Putnam and Merritt. Experimental determination of the anticonvulsant properties of some phenyl derivatives. Science 1937, 85, 113-118). It is highly reproducible with consistent endpoints. The behavioral and electrographic seizures generated in this model are consistent with the human disorder. This model identifies those compounds which prevent seizure spread.
In the MES test, an electrical stimulus of 0.2 s in duration (50 mA in mice and 150 mA in rat at 60 Hz) is delivered via corneal electrodes primed with an electrolyte solution containing an anesthetic agent. Mice are tested at 30 minutes and 4 hours following doses of 30, 100 and 300 mg/kg of test compound. Test compounds are administered intraperitoneally to the mice. Rats are tested at time intervals between 0.25 and 4 hours following a standard oral dose of 30 mg/kg. Abolition of the hindlimb tonic extensor component indicates the test compound's ability to inhibit MES-induced seizure spread.
(The maximal electroshock test induces tonic seizures with an electrical stimulus.)

The test system of assay [2] is pentylenetetrazol-induced clonic seizures. The experiment in a line: Subcutaneous pentylenetetrazol seizure test (scPTZ), mouse. The class given is in vivo, Carworth Farms No. 1 mice. As to conditions: pentylenetetrazol 85 mg/kg s.c., test compound intraperitoneally, read-out: Mouse PTZ ED50, s.c. The method, then: (§1) Methods to measure anticonvulsant activity: All tests were conducted by the Anticonvulsant Screening Program (ASP) of the National Institute of Neurological Disease and Stroke at the National Institutes of Health. The subcutaneous pentylenetetrazol (metrazol) seizure test (scPTZ). This model primarily identifies compounds that raise seizure threshold. The behavioral seizure produced is not typical of absence epilepsy but clonic in nature. With some minor exceptions, the pharmacological profile of the scPTZ seizure model is consistent with the human condition. The scPTZ test utilizes a dose of pentylenetetrazol (85 mg/kg in Carworth Farms No. 1 mice and 70 mg/kg in Sprague-Dawley rats). This produces clonic seizures lasting for a period of at least five seconds in 97 percent of animals tested. At the anticipated time of testing the convulsant is administered subcutaneously. The test compound is administered intraperitoneally in mice and orally in rats. Animals are observed over a 30 minute period. Absence of clonic spasms in the observed time period indicates a compound's ability to abolish the effect of pentylenetetrazol on seizure threshold (Swinyard E A. Laboratory evaluation of antiepileptic drugs: review of laboratory methods. Epilepsia, 1969, 10, 107-119).

Assay [3] shares this test system. Nature of the assay: Subcutaneous pentylenetetrazol seizure test (scPTZ), rat. It is filed as in vivo, Sprague-Dawley rats. As to conditions: pentylenetetrazol 70 mg/kg s.c., test compound orally, read-out: Rat PTZ ED50, s.c. Here is the method: as §1

The EC50 is the concentration that produces a half-maximal response. Usually ED50 stands for the dose that gives a 50% effect, or the effect in half of the subjects.

On to `NS(=O)(=O)NCC(F)(F)c1ccccc1F` [Example 1, 2,2-Difluoro-2-(2-fluorophenyl)-ethyl-1-sulfamide], for which, in the assay on hippocampal neurons, the EC50 was 0.03 nM. Also, the “Duration of action MES” value in assay [1] amounted to 4 h. Also, the figures for the 50% effective dose (ED50) in assay [1], in assay [2] and in assay [3] were 50 mg/kg, 108 mg/kg and 107 mg/kg, respectively.

Take `NS(=O)(=O)NCC(F)(F)c1ccccc1Cl` [Example 2, 2,2-Difluoro-2-(2-chlorophenyl)-ethyl-1-sulfamide]: in the assay on hippocampal neurons, the EC50 amounted to 0.01 nM. The “Duration of action MES” value in assay [1] came to 4 h. Further, the median effective dose (ED50) in assay [1] is 54 mg/kg; in assay [2], 98 mg/kg; in assay [3], 48 mg/kg.
